Values after ≈ are worked out from the molar mass of the structure shown.
Key:
[1] = test system: T. atroviridae; experiment: Antimicrobial activity MIC, T. atroviridae; type: cell-based, Trichoderma atroviride
[2] = test system: E. coli; experiment: Antimicrobial activity MIC, E. coli; type: cell-based, Escherichia coli (MTCC 443)
[3] = test system: S. aureus; experiment: Antimicrobial activity MIC, S. aureus; type: cell-based, Staphylococcus aureus (MTCC 9660)
[4] = test system: B. subtilis; experiment: Antimicrobial activity MIC, B. subtilis; type: cell-based, Bacillus subtilis (MTCC 441)
[5] = test system: A. flavus; experiment: Antimicrobial activity MIC, A. flavus; type: cell-based, Aspergillus flavus
[6] = test system: P. citrinum; experiment: Antimicrobial activity MIC, P. citrinum; type: cell-based, Penicillium citrinum
[7] = test system: C. albicans; experiment: Antimicrobial activity MIC, C. albicans; type: cell-based, Candida albicans
[8] = test system: P. aeruginosa; experiment: Antimicrobial activity MIC, P. aeruginosa; type: cell-based, Pseudomonas aeruginosa (MTCC 424)

| Compound | MIC ([1]; T. atroviridae) | MIC ([2]; E. coli) | MIC ([3]; S. aureus) | MIC ([4]; B. subtilis) | MIC ([5]; A. flavus) | MIC ([6]; P. citrinum) | MIC ([7]; C. albicans) | MIC ([8]; P. aeruginosa) | MIC ([1]; Trichoderma atroviride) | MIC ([2]; Escherichia coli) | MIC ([3]; Staphylococcus aureus) | MIC ([4]; Bacillus subtilis) | MIC ([5]; Aspergillus flavus) | MIC ([6]; Penicillium citrinum) | MIC ([7]; Candida albicans) | MIC ([8]; Pseudomonas aeruginosa) |
| --- | --- | --- | --- | --- | --- | --- | --- | --- | --- | --- | --- | --- | --- | --- | --- | --- |
| 5-(4-(Benzyloxy)phenyl)-7-thioxo-7,8-dihydropyrimido[4,5-d]pyrimidine-2,4(1H,3H)-dione [Compound 4b] | 0.01 µM | 0.17 µM | 0.34 µM | 0.17 µM | 0.01 µM | 0.01 µM | 0.005 µM | 0.17 µM |  |  |  |  |  |  |  |  |
| O=c1[nH]c(=O)c2c(-c3cccc(OCc4ccccc4)c3)nc(=S)[nH]c2[nH]1 [Compound 4a, 5-(3-(Benzyloxy)phenyl)-7-thioxo-7,8-dihydropyrimido[4,5-d]pyrimidine-2,4(1H,3H)-dione] |  |  |  |  |  |  |  |  | 0.17 µM (≈ 0.0643 µg/mL) | 0.04 µM (≈ 0.0151 µg/mL) | 0.02 µM (≈ 0.00757 µg/mL) | 0.01 µM (≈ 0.00378 µg/mL) | 0.17 µM (≈ 0.0643 µg/mL) | 0.17 µM (≈ 0.0643 µg/mL) | 0.08 µM (≈ 0.0303 µg/mL) | 0.04 µM (≈ 0.0151 µg/mL) |
| COc1ccc(-c2nc(=S)[nH]c3[nH]c(=O)[nH]c(=O)c23)cc1O [Compound 4c, 5-(3-Hydroxy-4-methoxyphenyl)-7-thioxo-7,8-dihydropyrimido[4,5-d]pyrimidine-2,4(1H,3H)-dione] |  |  |  |  |  |  |  |  | 0.05 µM (≈ 0.0159 µg/mL) | 0.2 µM (≈ 0.0637 µg/mL) | 0.4 µM (≈ 0.127 µg/mL) | 0.2 µM (≈ 0.0637 µg/mL) | 0.05 µM (≈ 0.0159 µg/mL) | 0.05 µM (≈ 0.0159 µg/mL) | 0.03 µM (≈ 0.00955 µg/mL) | 0.2 µM (≈ 0.0637 µg/mL) |
| COc1ccc(-c2nc(=S)[nH]c3c2c(=O)n(C)c(=O)n3C)cc1O [Compound 4d, 5-(3-Hydroxy-4-methoxyphenyl)-1,3-dimethyl-7-thioxo-7,8-dihydropyrimido[4,5-d]pyrimid-ine-2,4(1H,3H)-dione] |  |  |  |  |  |  |  |  | 0.37 µM (≈ 0.128 µg/mL) | 0.012 µM (≈ 0.00416 µg/mL) | 0.012 µM (≈ 0.00416 µg/mL) | 0.006 µM (≈ 0.00208 µg/mL) | 0.37 µM (≈ 0.128 µg/mL) | 0.37 µM (≈ 0.128 µg/mL) | 0.18 µM (≈ 0.0623 µg/mL) | 0.012 µM (≈ 0.00416 µg/mL) |

Source: patent US12297204B2, “5-(substitutedphenyl)-7-thioxo-7,8-dihydropyrimido[4,5-d]pyrimidine-2,4(1H,3H)-dione analogues as antibacterial agents” (KING FAISAL UNIVERSITY, priority 2023, dated 2025)
